Values quoted from earlier work, collected in patent US20240065995A1, “INJECTABLE METHODS TO TREAT DEFICIENCIES IN GLUTATHIONE METABOLISM AND HOMOCYSTINURIA” (priority 2022, published 2024).

Settings: glutathione in the bloodstream; background statement

half-life in the bloodstream: under 2 minutes
Compound: N[C@@H](CCC(=O)N[C@@H](CS)C(=O)NCC(=O)O)C(=O)O [Glutathione]
